Here are results for 11 compounds from ChEMBL document CHEMBL1201862, “PubChem BioAssay data set” (2004).

Among the test systems are A498; CAKI-1; CCRF-CEM; HCT-116; HCT-15; HOP-62; HT-29; Hs-578T; IGROV-1; KM12; M14; MDA-N; Malme-3M; NCI/ADR-RES; PC-3; SNB-19; SR; UACC-62; UO-31; TK-10.
What all share (test): NCI tumour cell line growth inhibition, 48 h

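A five-concentration, 48-hour dose response in 96-well plates underlies each endpoint, interpolated linearly between surrounding concentrations. GI50 is the concentration that inhibits growth by half.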 Calls of active or inactive are those of the source. Rule as the data show it: active = GI50 up to about 1.1 µM and inactive = higher.

Regarding `CCCCCCCCCCCCCCCCP(=O)(O)OCC(N)C(=O)O` (centres undefined), the GI50 with A498 is 23.6 µM (inactive); with CAKI-1, 19.1 µM (inactive); with CCRF-CEM it was 33.5 µM (inactive); in the test with HCT-116, 19.6 µM (inactive); with HCT-15, 31.3 µM; in the test with HOP-62, 23.4 µM (inactive). Also, the GI50 in the test on HT-29 was 55.3 µM (inactive); in the test on Hs-578T it was 54 µM (inactive); in the test on IGROV-1 it was 14.1 µM (inactive); in the test on KM12, 20.3 µM (inactive); in the test with M14 it was 50.2 µM (inactive); in the test with MDA-N it was 33.2 µM (inactive). The GI50 in the test on Malme-3M was > 100 µM (inactive); in the test on NCI/ADR-RES, > 100 µM (inactive); with PC-3 it was 14.9 µM (inactive); in the test with SNB-19, 16.9 µM (inactive); in the test with SR it was 13.7 µM (inactive); in the test with UACC-62, 44.5 µM (inactive). Also, the GI50 in the test on UO-31 was 16 µM (inactive).
Take `O=S1(=O)CCN(Cc2ccccc2)/C1=N\S(=O)(=O)c1ccc(Cl)cc1`: the GI50 in the test on A498 is 28.5 µM (inactive); in the test with CAKI-1, 19.1 µM (inactive); with CCRF-CEM, 24.9 µM (inactive); in the test on HCT-116, 18.5 µM (inactive); with HCT-15, 20.3 µM; in the test with HOP-62, 65.2 µM (inactive). Besides, the GI50 in the test with HT-29 is 17.9 µM (inactive); in the test with Hs-578T, 26.2 µM (inactive); in the test on IGROV-1 it was 17.8 µM (inactive); in the test with KM12 it was 27.4 µM (inactive); in the test with M14 it was 17.3 µM (inactive); with MDA-N it was 18.2 µM (inactive). Moreover, the GI50 in the test with NCI/ADR-RES was 16.6 µM (inactive); with PC-3, 18 µM (inactive); in the test on SNB-19, 57 µM (inactive); in the test with SR it was 24.2 µM (inactive); in the test on TK-10, 17 µM (inactive); in the test with UACC-62, 17.8 µM (inactive). In addition, the GI50 in the test with UO-31 was 17.5 µM (inactive).
`O=C(O)CN1CCN(CC(=O)O)CCN(CC(=O)O)CCN(CC(=O)O)CC1` [TETRAXETAN]: the GI50 is > 100 µM (inactive) with A498; > 100 µM (inactive) in the test on CAKI-1; > 100 µM (inactive) in the test with CCRF-CEM; > 100 µM (inactive) with HCT-116; greater than 100 µM in the test on HCT-15; > 100 µM (inactive) with HOP-62. In addition, the GI50 in the test with HT-29, in the test on Hs-578T, in the test on IGROV-1, in the test on KM12, in the test with M14 and in the test on MDA-N was > 100 µM (inactive) in each case. The GI50 with NCI/ADR-RES, in the test with PC-3, in the test with SNB-19, in the test on SR, with TK-10 and in the test on UACC-62 was > 100 µM (inactive) in each case. Besides, the GI50 in the test on UO-31 was > 100 µM (inactive).
In the case of `CCCSc1ccc2[nH]c(N3C(=O)/C(=C/c4ccc(O)c(OC)c4)N=C3c3ccccc3)cc2c1`, the GI50 was 6.35 µM (inactive) with A498; 14.7 µM (inactive) with CAKI-1; 7.82 µM (inactive) in the test with CCRF-CEM; 7.59 µM (inactive) with HCT-116; 4.43 µM with HCT-15; 0.0424 µM (active) in the test with HOP-62. Moreover, the GI50 with HT-29 was 3.02 µM (inactive); with Hs-578T, 0.0697 µM (active); in the test on IGROV-1 it was 4.2 µM (inactive); with KM12, 0.0791 µM (active); in the test on M14, 3.58 µM (inactive); in the test with MDA-N, 2.32 µM (inactive). Also, the GI50 is 2.98 µM (inactive) with Malme-3M; 3.1 µM (inactive) in the test with NCI/ADR-RES; 13.2 µM (inactive) in the test on PC-3; 3.57 µM (inactive) in the test on SNB-19; 1.34 µM (inactive) in the test with SR; 3.07 µM (inactive) in the test with UACC-62. Moreover, the GI50 in the test on UO-31 is 12.8 µM (inactive).
As to `CCOC(=O)CCC(NC(=O)c1ccc(OCc2nc3cc(C(F)(F)F)ccc3nc2-c2ccccc2)cc1)C(=O)OCC` (centres undefined), the GI50 in the test with A498 is > 100 µM (inactive); in the test with CAKI-1 it was 74.8 µM (inactive); in the test on CCRF-CEM, 58.2 µM (inactive); in the test with HCT-116, 52.2 µM (inactive); in the test with HCT-15 it was 68.2 µM; in the test on HT-29, > 100 µM (inactive). The GI50 is 35.8 µM (inactive) with Hs-578T; 75.2 µM (inactive) with IGROV-1; 29 µM (inactive) in the test with KM12; 81.7 µM (inactive) in the test on M14; 55.5 µM (inactive) in the test on MDA-N; 87.3 µM (inactive) in the test with Malme-3M. The GI50 with NCI/ADR-RES is 54 µM (inactive); with PC-3, 42.7 µM (inactive); in the test with SNB-19, > 100 µM (inactive); in the test with SR it was 16.4 µM (inactive); in the test on UACC-62 it was 52.8 µM (inactive); with UO-31, 37.9 µM (inactive).
Consider `OC1C#CCSCC#C/C=C\1` (centres undefined), for which the GI50 in the test with A498 is 76.6 µM (inactive); in the test on CCRF-CEM, 27 µM (inactive); in the test on HCT-116, 62.1 µM (inactive); in the test with HCT-15 it was greater than 100 µM; in the test on HOP-62 it was > 100 µM (inactive); in the test with HT-29, 65.9 µM (inactive). The GI50 was 34 µM (inactive) in the test on Hs-578T; > 100 µM (inactive) in the test on IGROV-1; > 100 µM (inactive) with M14; 81.3 µM (inactive) in the test on MDA-N; 47.1 µM (inactive) in the test with Malme-3M; 1.93 µM (inactive) in the test with NCI/ADR-RES. The GI50 with PC-3, with SNB-19, in the test on SR, with TK-10, in the test with UACC-62 and in the test with UO-31 was > 100 µM (inactive) in each case.
Consider `O=C(Nn1c(-c2ccccc2)nc2ccccc2c1=O)c1ccc(Cl)cc1`, for which the GI50 was 45.7 µM (inactive) in the test with A498; > 100 µM (inactive) in the test with CCRF-CEM; > 100 µM (inactive) in the test on HCT-116; greater than 100 µM in the test on HCT-15; > 100 µM (inactive) in the test on HOP-62; > 100 µM (inactive) in the test with HT-29. The GI50 with Hs-578T was 34 µM (inactive); with IGROV-1, > 100 µM (inactive); with KM12, > 100 µM (inactive); in the test on M14 it was > 100 µM (inactive); in the test with MDA-N it was > 100 µM (inactive); with Malme-3M, > 100 µM (inactive). Also, the GI50 in the test on NCI/ADR-RES was > 100 µM (inactive); with PC-3, 66.4 µM (inactive); in the test with SNB-19 it was > 100 µM (inactive); with SR, 85.5 µM (inactive); in the test with TK-10, 86.3 µM (inactive); in the test with UACC-62, 48.3 µM (inactive). The GI50 with UO-31 is 65.6 µM (inactive).
With `COc1cccc2c1OC1(C=C2)Oc2ccccc2C(=O)N1C` (centres undefined), the GI50 in the test on A498 was 19.6 µM (inactive); with CAKI-1, 8.18 µM (inactive); with CCRF-CEM it was 12.2 µM (inactive); with HCT-116, 37.6 µM (inactive); in the test on HCT-15, 32.5 µM; in the test with HOP-62 it was 51.5 µM (inactive). Further, the GI50 was 28.5 µM (inactive) in the test with HT-29; 21.5 µM (inactive) in the test on Hs-578T; 27.7 µM (inactive) with IGROV-1; 19.1 µM (inactive) in the test on KM12; 40.8 µM (inactive) with M14; 15 µM (inactive) with MDA-N. The GI50 in the test on NCI/ADR-RES was 3.91 µM (inactive); with PC-3, 27.2 µM (inactive); with SNB-19, 56.2 µM (inactive); with SR, 3.55 µM (inactive); in the test on TK-10, 24.9 µM (inactive); with UACC-62, 40.6 µM (inactive). In addition, the GI50 in the test with UO-31 was 19.8 µM (inactive).
Consider `CC1=CC(=O)CC(C)(C)C1/C=C/C(C)=C/C=C/C(C)=C/C=C/C=C(C)/C=C/C=C(C)/C=C/C1=C(C)CC(O)CC1(C)C` (centres undefined), for which the GI50 in the test on A498 is 94.2 µM (inactive); in the test on CAKI-1 it was 39.3 µM (inactive); in the test with CCRF-CEM, 24.9 µM (inactive); in the test with HCT-116, 18.4 µM (inactive); with HCT-15 it was 24.1 µM; in the test on HOP-62 it was 47 µM (inactive). The GI50 was 30.8 µM (inactive) with HT-29; 38.9 µM (inactive) with Hs-578T; 39.1 µM (inactive) with IGROV-1; 31.8 µM (inactive) with KM12; 33 µM (inactive) in the test on M14; 29.9 µM (inactive) in the test with MDA-N. The GI50 is 51.5 µM (inactive) with NCI/ADR-RES; 45.3 µM (inactive) with PC-3; 0.0422 µM (active) in the test on SR; 50.2 µM (inactive) with TK-10; 44.8 µM (inactive) in the test with UO-31.
`S=C1CC(c2ccc(Cl)cc2)Sc2ccccc2N1` (centres undefined): the GI50 in the test with CAKI-1 is 41.4 µM (inactive); in the test on CCRF-CEM, 51.9 µM (inactive); with HCT-116, 19.1 µM (inactive); with HCT-15 it was 90.8 µM; in the test on HOP-62, 16.4 µM (inactive); in the test on HT-29, > 100 µM (inactive). Also, the GI50 was 11.9 µM (inactive) in the test with Hs-578T; 43.4 µM (inactive) in the test on IGROV-1; 45.7 µM (inactive) with KM12; 24.3 µM (inactive) in the test on M14; > 100 µM (inactive) in the test with MDA-N; 53.2 µM (inactive) in the test with Malme-3M. Besides, the GI50 in the test with NCI/ADR-RES is 32.4 µM (inactive); with PC-3 it was 24.2 µM (inactive); in the test with SNB-19 it was 27.8 µM (inactive); in the test on SR it was 33.3 µM (inactive); in the test on TK-10, 46.7 µM (inactive); in the test with UACC-62 it was 31.6 µM (inactive). Also, the GI50 with UO-31 is > 100 µM (inactive).
As to `O=C1Cc2c([nH]c3c(Br)cccc23)-c2ccccc2N1`, the GI50 with A498 was > 100 µM (inactive); in the test on CCRF-CEM, 16.4 µM (inactive); in the test on HCT-116 it was > 10 µM (inactive); in the test on HCT-15, 25.1 µM; with HOP-62 it was 37.1 µM (inactive); with HT-29 it was 59.8 µM (inactive). The GI50 in the test with Hs-578T is 63.5 µM (inactive); in the test with IGROV-1, > 100 µM (inactive); with KM12 it was 60 µM (inactive); with M14, 58.5 µM (inactive); with MDA-N, > 100 µM (inactive); in the test on Malme-3M, > 100 µM (inactive). In addition, the GI50 in the test with NCI/ADR-RES was 40.3 µM (inactive); in the test with PC-3 it was 49.8 µM (inactive); with SNB-19, 43.6 µM (inactive); with SR, 19.1 µM (inactive); in the test on UACC-62 it was 48.8 µM (inactive); in the test with UO-31 it was 37.9 µM (inactive).
